This note sets out measurements from patent US11096942B2, “Heterocyclic compounds and uses thereof” (Celgene CAR LLC, priority 2010, dated 2021).

Molecules are shown by their SMILES. Like-named read-outs stand apart in the source and are kept apart here.

Test [1] addresses EGFR L858R/T790M (H1975 cells) (Homo sapiens (Human), UniProt P00533, L858R/T790M). The experiment in a line: Phospho-EGFR signaling immunoblot (1 hr), H1975 cells. In kind it is cell-based. As to conditions: WT EGFR (A431) vs H1975. On the procedure: (§1) A431 human epidermoid carcinoma, H1975 human NSCLC and HCC827 human NSCLC adenocarcinoma cells were obtained from the American Type Culture Center (Manassas, Va.). A431 cells were grown in DMEM (Invitrogen, Carlsbad, Calif.) supplemented with 10% FBS (HyClone, South Logan, Utah) and 1% Penicillin-Streptomycin (P/S, Lonza, Walkersville, Md.).
(§2) All primary antibodies were obtained from Cell Signaling (Danvers, Mass.) and used at 1:1000. Secondary antibodies were used at 1:10,000. Goat anti-mouse IgG IRDye 800CW antibody was obtained from LiCor Biosciences (Lincoln, Nebr.) and goat anti-rabbit IgG Alexa Fluor 680 was obtained from Invitrogen.
(§3) Cells were grown in 12-well plates (Corning, Coring, N.Y.) to 90% confluence and then incubated in low-serum (0.1% FBS) media for 16-18 hr. […] A431 cells were then stimulated with 50 ng/ml EGF (Peprotech, Rocky Hill, N.J.) for 15 min. After treatment, cell monolayers were washed with cold PBS (Invitrogen) and immediately lysed by scrapping into 60 uL cold Cell Extraction Buffer (Invitrogen) supplemented with Complete Protease inhibitors (Roche, Indianapolis, Ind.) and PhosphoSTOP (Roche) phosphatase inhibitors.
(§4) Phospho-protein signals were quantitated using Odyssey Infrared Imaging (Li-Cor Biosciences).
(§5) To assess phosphor-EGFR signaling, blots were probed with rabbit anti-Phospho-EGFR (Y1068) and mouse total anti-EGFR antibodies. Phospho-EGFR signal was normalized to total EGFR expression for each sample. […] Normalized data was fitted using a sigmoidal curve analysis program (Graph Pad Prism version 5) with variable Hill slope to determine the EC50 values.
(In general: In western blotting, separated proteins are transferred to a membrane and probed.)

Test [2] has as its system H1975 cells (EGFR L858R/T790M). The test is described as follows: Cell proliferation (CellTiter Glo, 72 hr), H1975 cells. Type of test: cell-based, human. The protocol: as §1
(§6) Cells were plated in Growth Media supplemented with 5% FBS and 1% P/S at a density of 3,000 cells per well in 96 well tissue culture plates (Corning). […] Growth inhibition (GI50) values were determined by Graph Pad Prism.
(Cellular ATP, detected with luciferase, serves as a proxy for viable cell number.)

In test [3] the test system is HCC827 cells (EGFR delE746-A750). The test is described as follows: Cell proliferation (CellTiter Glo, 72 hr), HCC827 cells. Type of test: cell-based, human. On the procedure:
as §1, §6

Test [4] deals with EGFR delE746-A750 (HCC827 cells) (Homo sapiens (Human), UniProt P00533, DEL746-750). The test is described as follows: Phospho-EGFR signaling immunoblot (1 hr), HCC827 cells. As to conditions: WT EGFR (A431) vs HCC827. Type of test: cell-based. The protocol: as §1, §2, §3, §4, §5
Setting [5] is: proliferation, WT EGFR (A431) vs H1975.
The mark [6] stands for this setting: proliferation, WT EGFR (A431) vs HCC827.

Consider `C=CC(=O)Nc1cccc(Nc2nc(Nc3ccc(N4CCN(C(C)=O)CC4)cc3OC)ncc2Cl)c1` [Compound I-8, N-(3-(2-(4-(4-acetylpiperazin-1-yl)-2-methoxyphenylamino)-5-chloropyrimidin-4-ylamino)phenyl)acrylamide], for which the “Ratio WT/mutant” value in test [1] is listed as more than 1; in test [2] (setting [5]), more than 1; in test [3] (setting [6]) it was more than 20.

For the molecule `C=CC(=O)Nc1cccc(Oc2nc(Nc3ccc(N4CCN(C(=O)CO)CC4)cc3OC)ncc2C(F)(F)F)c1` [Compound I-11, N-(3-(2-(4-(4-(2-hydroxyacetyl)piperazin-1-yl)-2-methoxyphenylamino)-5-(trifluoromethyl)pyrimidin-4-yloxy)phenyl)acrylamide], the “Ratio WT/mutant” value in test [1] was more than 15; in test [2] (setting [5]), more than 5; in test [3] (setting [6]), more than 45.

Take `C=CC(=O)Nc1cccc(Nc2nc(Nc3ccc(N4CCN(C(=O)CO)CC4)cc3OC)ncc2Cl)c1` [Compound I-12, N-(3-(5-chloro-2-(4-(4-(2-hydroxyacetyl)piperazin-1-yl)-2-methoxyphenylamino)pyrimidin-4-ylamino)phenyl)acrylamide]: the “Ratio WT/mutant” value in test [1] was more than 1; in test [2] (setting [5]), more than 1; in test [3] (setting [6]), more than 30.

Consider `C=CC(=O)Nc1cccc(Nc2nc(Nc3ccc(N4CCOCC4)cc3OC(F)F)ncc2C(F)(F)F)c1` [Compound I-14, N-(3-(2-(2-(difluoromethoxy)-4-morpholinophenylamino)-5-(trifluoromethyl)pyrimidin-4-ylamino)phenyl)acrlamide], for which the “Ratio WT/mutant” value in test [1] was more than 15; in test [4], more than 15; in test [2] (setting [5]), more than 5; in test [3] (setting [6]), more than 10.

Take `C=CC(=O)Nc1cccc(Nc2nc(Nc3ccc(N4CCN(S(C)(=O)=O)CC4)cc3OC)ncc2C(F)(F)F)c1` [Compound I-17, N-(3-(2-(2-methoxy-4-(4-(methylsulfonyl)piperazin-1-yl)phenylamino)-5-(trifluoromethyl)pyrimidin-4-ylamino)phenyl)acrylamide]: the “Ratio WT/mutant” value in test [1] is more than 30; in test [4], more than 5; in test [2] (setting [5]), more than 10; in test [3] (setting [6]) it was more than 15.

Consider `C=CC(=O)Nc1cccc(Oc2nc(Nc3ccc(N4CCN(C(=O)NC)CC4)cc3OC)ncc2C(F)(F)F)c1` [Compound I-21, 4-(4-(4-(3-acrylamidophenoxy)-5-(trifluoromethyl)pyrimidin-2-ylamino)-3-methoxyphenyl)-N-methylpiperazine-1-carboxamide], for which the “Ratio WT/mutant” value is given as more than 5 in test [1], more than 1 in test [2] (setting [5]) and more than 20 in test [3] (setting [6]).

On to `C=CC(=O)Nc1cccc(Oc2nc(Nc3ccc(N4CCN(S(C)(=O)=O)CC4)cc3OC)ncc2C(F)(F)F)c1` [Compound I-22, N-(3-(2-(2-methoxy-4-(4-(methylsulfonyl)piperazin-1-yl)phenylamino)-5-(trifluoromethyl)pyrimidin-4-yloxy)phenyl)acrylamide], for which the “Ratio WT/mutant” value is recorded as more than 35 in test [1], more than 10 in test [2] (setting [5]) and more than 35 in test [3] (setting [6]).

`C=CC(=O)Nc1cccc(Oc2nc(Nc3ccc(N4CCN(S(C)(=O)=O)CC4)cc3OC)ncc2Cl)c1` [Compound I-26, N-(3-(5-chloro-2-(2-methoxy-4-(4-(methylsulfonyl)piperazin-1-yl)phenylamino)pyrimidin-4-yloxy)phenyl)acrylamide]: the “Ratio WT/mutant” value in test [1] is more than 40; in test [2] (setting [5]), more than 1; in test [3] (setting [6]), more than 35.

In the case of `C=CC(=O)Nc1cccc(Nc2nc(Nc3ccc(N4CCN(C(C)=O)CC4)cc3OC(F)(F)F)ncc2C(F)(F)F)c1` [Compound I-33, N-(3-(2-(4-(4-acetylpiperazin-1-yl)-2-(trifluoromethoxy)phenylamino)-5-(trifluoromethyl)pyrimidin-4-ylamino)phenyl)acrylamide], the “Ratio WT/mutant” value in test [1] is given as more than 50; in test [2] (setting [5]), more than 30; in test [3] (setting [6]), more than 15.

`C=CC(=O)Nc1cccc(Nc2nc(Nc3ccc(N4CCN(C(=O)C(C)(C)C)CC4)cc3OC)ncc2C(F)(F)F)c1` [Compound I-34, N-(3-(2-(2-methoxy-4-(4-pivaloylpiperazin-1-yl)phenylamino)-5-(trifluoromethyl)pyrimidin-4-ylamino)phenyl)acrylamide]: the “Ratio WT/mutant” value in test [1] was more than 35; in test [2] (setting [5]), more than 5; in test [3] (setting [6]) it was more than 50.

As to `C=CC(=O)Nc1cccc(Nc2nc(Nc3ccc(N4CCN(C(C)=O)CC4)cc3OC)ncc2Br)c1` [Compound I-40, N-(3-(2-(4-(4-acetylpiperazin-1-yl)-2-methoxyphenylamino)-5-bromopyrimidin-4-ylamino)phenyl)acrylamide], the entries for the “Ratio WT/mutant” value in test [1], in test [2] (setting [5]) and in test [3] (setting [6]) were more than 1, more than 5 and more than 10, respectively.

Regarding `C=CC(=O)Nc1cccc(Nc2nc(Nc3ccc(N4CCN(S(C)(=O)=O)CC4)cc3OC)ncc2Cl)c1` [Compound I-41, N-(3-(5-chloro-2-(2-methoxy-4-(4-(methylsulfonyl)piperazin-1-yl)phenylamino)pyrimidin-4-ylamino)phenyl)acrylamide], the “Ratio WT/mutant” value in test [1] is on record as more than 1; in test [2] (setting [5]), more than 1; in test [3] (setting [6]), more than 20.

As for `C=CC(=O)Nc1cccc(Nc2nc(Nc3ccc(N4CCCN(C(=O)OC(C)(C)C)CC4)cc3OC)ncc2C(F)(F)F)c1` [Compound I-44, tert-butyl 4-(4-(4-(3-acrylamidophenylamino)-5-(trifluoromethyl)pyrimidin-2-ylamino)-3-methoxyphenyl)-1,4-diazpane-1-carboxylate], the “Ratio WT/mutant” value in test [1], in test [2] (setting [5]) and in test [3] (setting [6]) was more than 5 throughout.

As for `C=CC(=O)Nc1cccc(Oc2nc(Nc3ccc(N4CCN(C(=O)OC(C)(C)C)CC4)cc3OC)ncc2Cl)c1` [Compound I-46, tert-butyl 4-(4-(4-(3-acrylamidophenoxy)-5-chloropyrimidin-2-ylamino)-3-methoxyphenyl)piperazine-1-carboxylate], the “Ratio WT/mutant” value in test [1] was more than 10; in test [4], more than 50; in test [2] it was more than 1; in test [3], more than 10.

Turning to `C=CC(=O)Nc1cccc(Nc2nc(Nc3ccc(N4CCN(C(C)=O)[C@H](C(=O)OC)C4)cc3OC)ncc2C(F)(F)F)c1` [Compound I-48, (S)-methyl 1-acetyl-4-(4-(4-(3-acrylamidophenylamino)-5-(trifluoromethyl)pyrimidin-2-ylamino)-3-methoxyphenyl)piperazine-2-carboxylate], the figures for the “Ratio WT/mutant” value in test [1], in test [2] (setting [5]) and in test [3] (setting [6]) were more than 50, more than 10 and more than 15, respectively.

As to `C=CC(=O)Nc1cccc(Nc2nc(Nc3ccc(N4CCS(=O)(=O)CC4)cc3OC)ncc2C(F)(F)F)c1` [Compound I-49, N-(3-(2-(2-methoxy-4,4-dioxo-4-thiomorpholinophenylamino)-5-(trifluoromethyl)pyrimidin-4-ylamino)phenyl)acrylamide], the “Ratio WT/mutant” value in test [1] is recorded as more than 20; in test [2] (setting [5]) it was more than 10; in test [3] (setting [6]) it was more than 25.
